B1: Squalene synthase (Rattus norvegicus), Q02769 (protein)
chain: MEFVKCLGHPEEFYNLLRFRMGGRRNFIPKMDRNSLSNSLKTCYKYLDQTSRSFAAVIQALDGDIRHAVCVFYLILRAMDTVEDDMAISVEKKIPLLRNFHTFLYEPEWRFTESKEKHRVVLEDFPTISLEFRNLAEKYQTVIADICHRMGCGMAEFLNKDVTSKQDWDKYCHYVAGLVGIGLSRLFSASEFEDPIVGEDTECANSMGLFLQKTNIIRDYLEDQQEGRQFWPQEVWGKYVKKLEDFVKPENVDVAVKCLNELITNALQHIPDVITYLSRLRNQSVFNFCAIPQVMAIATLAACYNNHQVFKGVVKIRKGQAVTLMMDATNMPAVKAIIYQYIEEIYHRVPNSDPSASKAKQLISNIRTQSLPNCQLISRSHYSPIYLSFIMLLAALSWQYLSTLSQVTEDYVQREH

Molecular target: T1, Squalene synthase (Rattus norvegicus, UniProt Q02769)
T1 sequence (Q02769 whole entry): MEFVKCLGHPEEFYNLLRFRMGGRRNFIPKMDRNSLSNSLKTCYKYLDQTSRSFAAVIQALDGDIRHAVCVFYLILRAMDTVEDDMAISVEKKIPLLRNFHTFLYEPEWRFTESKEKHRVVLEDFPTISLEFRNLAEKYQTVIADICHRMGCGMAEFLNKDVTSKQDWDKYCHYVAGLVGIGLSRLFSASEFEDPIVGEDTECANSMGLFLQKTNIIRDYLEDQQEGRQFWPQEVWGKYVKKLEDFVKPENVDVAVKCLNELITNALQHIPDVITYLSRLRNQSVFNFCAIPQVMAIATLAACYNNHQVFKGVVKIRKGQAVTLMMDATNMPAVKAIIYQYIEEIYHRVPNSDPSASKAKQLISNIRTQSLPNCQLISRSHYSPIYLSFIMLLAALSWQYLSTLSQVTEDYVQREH
Test: Tested for inhibitory potency against rat liver microsomal squalene synthase
Settings: not given

Question: How did the Ki turn out when `CC(C)=CCC/C(C)=C\CC/C(C)=C/COCP(=O)(O)CP(=O)(O)O` was run?
Answer: Its Ki is 37 nM.

Same assay, conditions: read-out: I50

Question: With `CC(C)=CCC/C(C)=C/c1ccc(COCP(=O)(O)CP(=O)(O)O)c(C)c1` as the molecule, how does the IC50 read?
Answer: Its IC50 is 13.7 µM.

Question: `CC(C)=CCC/C(C)=C/c1cccc(COCP(=O)(O)CP(=O)(O)O)c1` was tested. Which IC50 did it give?
Answer: Its IC50 is 5.1 µM.

Question: How did the IC50 turn out when `CC(C)=CCC/C(C)=C/c1cc(C)c(COCP(=O)(O)CP(=O)(O)O)s1` was run?
Answer: The IC50 was 5.3 µM.

Question: For `CC(C)=CCC/C(C)=C\CC/C(C)=C/COCP(=O)(O)CP(=O)(O)O`, which IC50 is on record?
Answer: Its IC50 is 0.05 µM.

Question: With `CC(C)=CCC/C(C)=C/c1ccc(COCP(=O)(O)CP(=O)(O)O)s1` as the molecule, how does the IC50 read?
Answer: The IC50 was 0.964 µM.

Question: `CC(C)=CCC/C(C)=C/c1cc(C)c(COCP(=O)(O)CP(=O)(O)O)o1` was tested. Which IC50 did it give?
Answer: The IC50 was 41.3 µM.

Question: With `CC(C)=CCC/C(C)=C\CC/C=C/COCP(=O)(O)CP(=O)(O)O` as the molecule, how does the IC50 read?
Answer: The IC50 was 0.165 µM.

Question: `CC(C)=CCC/C(C)=C/c1ccc(COCP(=O)(O)CP(=O)(O)O)cc1` was tested. Which IC50 did it give?
Answer: Its IC50 is 0.125 µM.

Substrate: CC(C)=CCC/C(C)=C\CC/C(C)=C/COCP(=O)(O)CP(=O)(O)O
Test: Tested for Michaelis-Menten constant for squalene synthase
Settings: not given

Question: Which Km does the source give for B1 here?
Answer: Its Km is 12.7 µM.
